From US8975234B2, “Anti-bacterial infection, inflammation, and leukemia composition and use thereof” (priority 2011, dated 2015) come the findings set out here.

Data set [1] has as its system penicillin-binding protein 2a (PBP2a). Nature of the data set: Western blotting analysis of PBP2a expression. The class given is cell-based, Staphylococcus aureus. To be noted: 40 μg/mL alone. How it is done:
Protein samples (15 μg) were mixed with 5× Sample buffer and boiled in 1× Sample buffer for 5 min and then cooled quickly that proteins be denatured to their constituent polypeptide chains. Equal amounts of protein (15 μg) were separated on 10% SDS-PAGE at 17 mA for 2 hours, and transferred to PVDF membrane using wet transfer procedure. The PVDF membrane was blocked for half hour at room temperature in t-BST buffer containing 5% (w/v) non-fat dry milk to prevent nonspecific binding then probed with primary antibodies (Rabbit-anti-penicillin binding protein, dilution 1:5000) in 5% non-fat dry milk for 16˜18 hours at 4° C. Anti-Groel was used as internal controls (dilution 1:80,000; purchased from Sigma). After washing with t-BST three times for 5 minutes each, the membrane was incubated for half hour at room temperature with horseradish peroxidase (HRP)-conjugated secondary antibodies in 5% (w/v) non-fat dry milk. The membrane was washed three times for 5 minutes each, followed by using an enhanced chemiluminescence system and exposed to film.
On the technique in general: In western blotting, separated proteins are transferred to a membrane and probed.

Data set [2] relates to human erythromyeloblastoid leukemia K-562 cell. Briefly: Cell viability WST-1 assay. Format: cell-based. As to the method:
Quantitative cell viability assessed using WST-1 assay. WST-1 is a reagent which produces a highly water soluble formazan upon metabolically active cells, allowing a direct colorimetric measurement of cell viability.
The K-562 cells were plated in a 96-well culture plate at a seeding density of 6,000 cells/well (100 μL) and incubated at 37° C. with 5% CO2 for 16˜18 hours. Cells were treated with 20 μL Tellimagrandin II to make the final concentrations of 0, 20, 40, 60 and 80 μM, and incubated at 37° C. with 5% CO2 for 24 and 48 hours. Cells without Tellimagrandin II treatment used as a control. Added 12 μL of WST-1 reagent (10:1) to each well of the plate and mixed well, then incubated at 37° C. in a 5% CO2 incubator for 2 hours. After incubation, the absorbance at 450 nm (test wavelength) and 630 nm (reference wavelength) were measured. Data was calculated by subtracting the 630 nm background absorbance from the 450 nm measurement.
(In general: Formazan colour is commonly taken as a measure of viable cells.)

Data set [3] relates to human hepatoma cell line Hep G2. Nature of the data set: Cell viability assay (alamarBlue). Format: cell-based. To be noted: 40 μg/mL, 24 hours. How it is done: (§1) Cell viability was measured using alamarBlue. For cell viability assays, human embryonic kidney cell line HEK 293 and human hepatoma cell line Hep G2 were plated 180 μL in each well on a 96-well plate (for HEK 293, at a density of about 10,000 cells/well; for Hep G2, at a density of about 7500 cells/well). The cells were grown overnight (16˜18 hours) and left to attach. After overnight incubation, 20 μL of Tellimagrandin II was added to give final concentrations of 0, 20, 30, 40 and 50 μg/mL. The cultures with 0 μg/mL Tellimagrandin II and without adding additional drug (medium only) were as controls. The cells are then incubated in a 5% CO2, 37° C. incubator for 24 hours. After 24 hours, 100 μL of alamarBlue was added to each well, and cultured in a 5% CO2, 37° C. incubator for 4 hours. Absorbance was monitored at 570 nm and 600 nm and cell viability was determined.

The subject of data set [4] is human embryonic kidney cell line HEK 293. Briefly: Cell viability assay (alamarBlue). The class given is cell-based. To be noted: 40 μg/mL, 24 hours. How it is done: as §1
In general terms: Resazurin is reduced to fluorescent resorufin, in cell work by metabolically active cells.

The test system of a further data set is K-562 cells. Nature of the data set: DNA ladder test. To be noted: 48 hours, different concentrations. Format: cell-based, human. How it is done: K-562 cells treated with Tellimagrandin II were collected for electrophoresis to identify any DNA fragmentation.
A total of 3 mL cell solution at the concentration of 1×10^6 K-562 cells per mL was cultured with 6 cm cell culture plates in an incubator supplied with 5% CO2 at 37° C. for 30 minutes so that cells could adapt to the environment. Tellimagrandin II solutions of different concentrations were added by order so that the final concentrations are 0, 20, 30, 40, 50 and 60 μM respectively. The solution was placed in incubator with 5% CO2 at 37° C. for 48 hours before being centrifuged at 2,500 rpm at 4° C. for 5 minutes. After removing the supernatant, it's rinsed by PBS once. Then, cell lysis buffer 100 μL (1% NP-40 dissolved in […], pH 8.0) was added and the solution was shaken at high speed for 10 seconds.
The solution was centrifuged at 3,500 rpm for 5 minutes before 90 μL supernatant was collected and mixed properly with SDS solution 10 μL. RNase A (4 mg/mL) 50 μL was added into the mixed solution then placed in water bath at 56° C. for one hour to remove RNA. Proteinase K (10 mg/mL) 30 μL was then added before another one hour in the water bath at 56° C. to remove protein. […]

Data set [5] deals with LPS-induced NO in RAW264.7 cells. Briefly: NO production analysis (Griess reagent). To be noted: before or after LPS, 25 and 50 μM statistically significant. The class given is cell-based, mouse. How it is done: Murine macrophage cells were plated in each well on a 12-well plate at a density of about 4×10^5 RAW264.7 cells/mL. After overnight incubation, cells were serum starved in DMEM medium containing 2% Fetal Bovine Serum (FBS) for 3 hours. […] Endogenous NO production, induced by LPS. Cells were treated with Tellimagrandin II at various concentrations (10, 25 and 50 μM) before and after being treated with LPS. For NO production analysis, culture supernatants were brought to 96-well plate and mixed with Griess reagent. Plates were incubated and then the absorbance was measured at 520 nm. Sodium nitrite (NaNO2) solution (0 M˜0.1 M, 8 points) prepared in DMEM was used to generate a standard curve. The nitrite concentrations of samples were determined by interpolation from the standard curve. […] FIG. 10 is framed by a an x-axis labeled the relative order in LPS or Tellimagrandin II treatment and concentrations, and y-axis labeled NO concentration. The control (LPS only) and test groups were compared using a t-test, *p<0.05 (significant) and #p<0.01 (highly significant).

With `O=C(OC1O[C@@H]2COC(=O)c3cc(O)c(O)c(O)c3-c3c(cc(O)c(O)c3O)C(=O)O[C@H]2[C@H](OC(=O)c2cc(O)c(O)c(O)c2)[C@H]1OC(=O)c1cc(O)c(O)c(O)c1)c1cc(O)c(O)c(O)c1` (stereo partly shown) [Tellimagrandin II], the “expression of penicillin-binding protein 2a (PBP2a)” value in data set [1] was “inhibit the expression”. The IC50 in data set [2] (K562, 24 hr) amounted to 57 µM; in data set [2] (K562, 48 hr), 48.1 µM. The Cell viability result in data set [3] and in data set [4] was “at least 80%” throughout. In addition, the “DNA fragmentation, DNA ladder electrophoresis” value with K-562 cells was “DNA fragmentation occurred”. Further, the “production of LPS-induced NO” value in data set [5] was “decreased the production of LPS-induced NO”.

As a reminder, the IC50 is the midpoint of a concentration-inhibition curve.
